Experimental data from patent US5434141A, “Medicament for the treatment of hyperlipidaemia and/or atherosclerosis” (Steigerwald Arzneimittelwerk GmbH, priority 1990, dated 1995).
Entries after “also recorded” stand apart in the source; their conditions may differ. Where two headings read alike, the source gives them in different places.

Tests used:
[1] = Experiment 1: serum cholesterol and lipid concentration in hamsters fed a lipidaemia diet, 4 weeks; type: in vivo, male golden hamsters; conditions: for hypocholesterolaemic / lipid-lowering action, in words: serum
Method: (§1) 3 Groups each of 20 male golden hamsters were fed for 4 weeks with a lipidaemia diet (hamster maintenance diet and 2% cholesterol).
(§2) The dose taken was between 4 and 5 g/kg of body weight and day.
(§3) After 4 weeks the animals were sacrificed and the serum and hepatic lipid concentration was measured. The results of the analyses are compiled in Tables 1, 2 and 3.

[2] = Experiment 1: hepatic lipid concentration in hamsters fed a lipidaemia diet, 4 weeks; type: in vivo, male golden hamsters; conditions: four weeks
Method: as §1, §2, §3

[3] = Tolerability / toxic effects (general statement); conditions: in vivo
[4] = by contrast with pectin; cited from earlier work
[5] = in vivo; cited from earlier work
[6] = Method: (§4) 3 Groups each of 20 male golden hamsters were fed for 4 weeks with a lipidaemia diet (hamster maintenance diet and 2% cholesterol). The feed in the two treated groups was additionally supplemented with in each case 5% galacturonic acid or DEAE-polygalacturonic acid (DEAE=diethylaminoethyl).
(§5) 3 Groups each of 20 male golden hamsters were treated for 4 weeks like the animals described in 1. […] Group 1 was the lipidaemia control.

[7] = Experiment 2: hepatic lipid concentration in hamsters fed a lipidaemia diet, 4 weeks; type: in vivo, male golden hamsters; conditions: four weeks
Method: as §4, §5

[8] = mean, n = 20/group, 5% in feed, four weeks
[9] = mean, n = 20/group, 5% in feed, four weeks, * p ≤ 0.05
[10] = significant, p≤0.05, four weeks
[11] = mean, n = 20/group, 5% in feed, * p ≤ 0.05

O=C(O)[C@H]1O[C@H](O)[C@H](O)[C@@H](O)[C@H]1O [galacturonic acid, α-D-galacturonic acid]
Free cholesterol in serum, D = difference from the control group ([1]; 5% in feed, four weeks): -19%
HDL-cholesterol in serum, D = difference from the control group ([1]; 5% in feed, four weeks): -20%
LDL-cholesterol in serum, D = difference from the control group ([1]; 5% in feed, four weeks): -23%
Phospholipids in serum, D = difference from the control group ([1]; 5% in feed, four weeks): -17%
Total cholesterol in serum, D = difference from the control group ([1]; 5% in feed, four weeks): -20%
Total lipids in serum, D = difference from the control group ([1]; 5% in feed, four weeks): -18%
Triglycerides in serum, D = difference from the control group ([1]; 5% in feed, four weeks): +7%
VLDL + LDL-cholesterol in serum, D = difference from the control group ([1]; 5% in feed, four weeks): -20%
VLDL-cholesterol in serum, D = difference from the control group ([1]; 5% in feed, four weeks): -14%
Phospholipids concentration in serum [1, 8]: 322 mg/dL
Total lipids concentration in serum [1, 8]: 1060 mg/dL
Triglycerides concentration in serum [1, 8]: 216 mg/dL
Free cholesterol concentration in serum [1, 9]: 96 mg/dL
HDL-cholesterol concentration in serum [1, 9]: 118 mg/dL
LDL-cholesterol concentration in serum [1, 9]: 117 mg/dL
Total cholesterol concentration in serum [1, 9]: 271 mg/dL
VLDL + LDL-cholesterol concentration in serum [1, 9]: 153 mg/dL
VLDL-cholesterol concentration in serum [1, 9]: 36 mg/dL
hypocholesterolaemic / lipid-lowering action, in words [1]: significant decrease in the cholesterol and lipid concentrations; also recorded: has a hypocholesterolaemic action
hypocholesterolaemic / lipid-lowering action, in words ([1]; listed as α-D-galacturonic acid): shows a hypocholesterolaemic action in the serum
lowering of serum HDL-cholesterol ([1]; significant, four weeks): 20%
lowering of serum LDL-cholesterol ([1]; significant, four weeks): 23%
lowering of serum VLDL- plus LDL-cholesterol ([1]; significant, four weeks): 20%
lowering of serum free cholesterol ([1]; significant, four weeks): 19%
lowering of serum phospholipid concentration ([1]; significant, four weeks): 17%
lowering of serum total lipid concentration ([1]; significant, four weeks): 18%
lowering of serum concentration of total cholesterol [1, 10]: 20%
Hepatic cholesterol, D = difference from the control group ([2]; 5% in feed): -9%
Hepatic total lipids, D = difference from the control group ([2]; 5% in feed): -34%
Hepatic cholesterol concentration [2, 11]: 27 mg/g wet weight
Hepatic total lipids concentration [2, 11]: 111 mg/g wet weight
reduction of total lipid concentration in the liver ([2]; significant): 34%
tolerability [3]: as a rule well tolerated
solubility in water [4]: readily soluble in water
toxic effects [5]: No toxic effects are known

polygalacturonic acid
Free cholesterol in serum, D = difference from the control group ([6]; 5% in feed, four weeks): -32%
HDL-cholesterol in serum, D = difference from the control group ([6]; 5% in feed, four weeks): -15%
LDL-cholesterol in serum, D = difference from the control group ([6]; 5% in feed, four weeks): -18%
Phospholipids in serum, D = difference from the control group ([6]; 5% in feed, four weeks): -19%
Total cholesterol in serum, D = difference from the control group ([6]; 5% in feed, four weeks): -13%
Total lipids in serum, D = difference from the control group ([6]; 5% in feed, four weeks): -14%
VLDL + LDL-cholesterol in serum, D = difference from the control group ([6]; 5% in feed, four weeks): -8%
VLDL-cholesterol in serum, D = difference from the control group ([6]; 5% in feed, four weeks): -4%
Phospholipids concentration in serum [6, 8]: 385 mg/dL
Total lipids concentration in serum [6, 8]: 1338 mg/dL
Triglycerides concentration in serum [6, 8]: 269 mg/dL
Free cholesterol concentration in serum [6, 9]: 80 mg/dL
HDL-cholesterol concentration in serum [6, 9]: 149 mg/dL
LDL-cholesterol concentration in serum [6, 9]: 163 mg/dL
Total cholesterol concentration in serum [6, 9]: 361 mg/dL
VLDL + LDL-cholesterol concentration in serum [6, 9]: 212 mg/dL
VLDL-cholesterol concentration in serum [6, 9]: 48 mg/dL
lowering of serum phospholipid concentration ([6]; significant, four weeks): 19%
lowering of serum total lipid concentration ([6]; significant, four weeks): 14%
lowering of serum HDL-cholesterol [6, 10]: 15%
lowering of serum free cholesterol [6, 10]: 32%
lowering of serum total cholesterol [6, 10]: 13%
Hepatic cholesterol, D = difference from the control group ([7]; 5% in feed): -26%
Hepatic total lipids, D = difference from the control group ([7]; 5% in feed): -25%
Hepatic cholesterol concentration [7, 11]: 22.1 mg/g wet weight
Hepatic total lipids concentration [7, 11]: 67.4 mg/g wet weight
lowering of hepatic cholesterol concentration ([7]; significant): 26%
lowering of hepatic total lipid concentration ([7]; significant): 25%
